Measurements from ChEMBL document CHEMBL1125160, “Dihydropyrimidine calcium channel blockers: 2-heterosubstituted 4-aryl-1,4-dihydro-6-methyl-5-pyrimidinecarboxylic acid esters as potent mimics of dihydropyridines” (J Med Chem, 1990).

Organism: Oryctolagus cuniculus
Experiment: Vasorelaxant potency in isolated potassium (K(+)-depolarized rabbit thoracic aorta.
Assay type: functional

## CSC1=NC(c2cccc([N+](=O)[O-])c2)C(C(=O)OC(C)C)=C(C)N1 (stereo not given)
  IC50: 7 nM

## COC(=O)C1=C(C)N=C(SC)NC1c1cccc([N+](=O)[O-])c1 (stereo not given)
  IC50: 280 nM

## CCOC(=O)C1=C(C)NC(SC)=NC1c1ccccc1[N+](=O)[O-] (stereo not given)
  IC50: 300 nM

## CC1=C(C(=O)OC(C)C)C(c2cccc([N+](=O)[O-])c2)N=C(SCCN(C)C)N1 (stereo not given)
  IC50: 1200 nM

## CCOC(=O)C1=C(C)NC(N(C)C)=NC1c1cccc([N+](=O)[O-])c1 (stereo not given)
  IC50: 6100 nM

## C=CCSC1=NC(c2cccc([N+](=O)[O-])c2)C(C(=O)OCC)=C(C)N1 (stereo not given)
  IC50: 300 nM

## CCOC(=O)C1=C(C)NC(OCC)=C(C(=O)OCC)C1c1cccc([N+](=O)[O-])c1 (stereo not given)
  IC50: 26 nM

## CCC(C)OC(=O)C1=C(C)NC(SC)=NC1c1cccc([N+](=O)[O-])c1 (stereo not given)
  IC50: 9 nM

## CCOC(=O)C1=C(C)NC(SCC)=C(C(=O)OCC)C1c1cccc([N+](=O)[O-])c1 (stereo not given)
  IC50: 4 nM

## CCOC(=O)C1=C(C)NC(SC)=NC1c1cccc(Cl)c1Cl (stereo not given)
  IC50: 16 nM

## CSC1=NC(c2cccc([N+](=O)[O-])c2)C(C(=O)OCCN(C)Cc2ccccc2)=C(C)N1 (stereo not given)
  IC50: 30 nM

## CCOC(=O)C1=C(C)NC(SC)=NC1c1ccccc1C(F)(F)F (stereo not given)
  IC50: 36 nM

## CSC1=NC(c2cccc(Cl)c2Cl)C(C(=O)OC(C)C)=C(C)N1 (stereo not given)
  IC50: 6 nM

## CSC1=NC(c2ccccc2C(F)(F)F)C(C(=O)OCCN(C)Cc2ccccc2)=C(C)N1 (stereo not given)
  IC50: > 100000 nM

## CSC1=NC(c2ccccc2[N+](=O)[O-])C(C(=O)OCCN(C)Cc2ccccc2)=C(C)N1 (stereo not given)
  IC50: 1900 nM

## CCOC(=O)C1=C(C)NC(SCCN(C)Cc2ccccc2)=NC1c1cccc([N+](=O)[O-])c1 (stereo not given)
  IC50: 170 nM

## CCOC(=O)C1=C(C)NC(SC)=NC1c1cccc([N+](=O)[O-])c1 (stereo not given)
  IC50: 130 nM

## CCCCCSC1=NC(c2cccc([N+](=O)[O-])c2)C(C(=O)OCC)=C(C)N1 (stereo not given)
  IC50: 180 nM

## CCOC(=O)C1=C(C)NC(SCc2ccccc2)=NC1c1cccc([N+](=O)[O-])c1 (stereo not given)
  IC50: 190 nM

## CCOC(=O)C1=C(C)N=C(OC)NC1c1cccc([N+](=O)[O-])c1 (stereo not given)
  IC50: 710 nM
